Assay results from PubChem BioAssay (NCI).
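Dose response: 5 concentrations. Exposure: 48 h. Format: 96-well plates. Endpoint: linear interpolation; highest concentration if not reached. GI50 marks 50% less growth. TGI denotes the concentration required for complete inhibition of growth.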

What was measured:
Assay in all cases: NCI-60 cell line screen, 48 h
[1] = tested on: M14 melanoma
[2] = tested on: U251 CNS
[3] = tested on: NCI/ADR-RES ovarian
[4] = tested on: NCI-H23 lung
[5] = tested on: NCI-H226 lung
[6] = tested on: SNB-19 CNS
[7] = tested on: HT29 colon
[8] = tested on: UACC-62 melanoma
[9] = tested on: UO-31 renal
[10] = tested on: CAKI-1 renal
[11] = tested on: A498 renal
[12] = tested on: HCT-15 colon
[13] = tested on: SK-MEL-5 melanoma
[14] = tested on: DU-145 prostate
[15] = tested on: HCC-2998 colon
[16] = tested on: OVCAR-8 ovarian
[17] = tested on: SF-295 CNS
[18] = tested on: MOLT-4 leukemia
[19] = tested on: HOP-92 NSCLC
[20] = tested on: KM12 colon
[21] = tested on: A549 NSCLC
[22] = tested on: SF-268 CNS
[23] = tested on: HCT-116 colon
[24] = tested on: MALME-3M melanoma
[25] = tested on: HL-60(TB) leukemia
[26] = tested on: MDA-MB-435
[27] = tested on: SW-620 colon
[28] = tested on: OVCAR-3 ovarian
[29] = tested on: SK-OV-3 ovarian
[30] = tested on: OVCAR-5 ovarian
[31] = tested on: K-562 leukemia
[32] = tested on: ACHN renal
[33] = tested on: OVCAR-4 ovarian
[34] = tested on: RXF 393 renal
[35] = tested on: SK-MEL-28 melanoma
[36] = tested on: SR leukemia
[37] = tested on: RPMI-8226 leukemia
[38] = tested on: MCF7 breast
[39] = tested on: MDA-MB-231 breast
[40] = tested on: UACC-257 melanoma
[41] = tested on: NCI-H522 lung
[42] = tested on: HOP-62 NSCLC
[43] = tested on: HS 578T breast
[44] = tested on: CCRF-CEM leukemia
[45] = tested on: BT-549 breast
[46] = tested on: SF-539 CNS
[47] = tested on: COLO 205 colon
[48] = tested on: TK-10 renal
[49] = tested on: SN12C renal
[50] = tested on: IGROV1 ovarian
[51] = tested on: SNB-75 CNS
[52] = tested on: 786-0 renal
[53] = tested on: NCI-H460 lung
[54] = tested on: T-47D breast
[55] = tested on: LOX IMVI melanoma

C/C(=C\CCc1ccsc1)CC/C=C(\C)CCCN1CCC(CO)CC1
GI50 [1]: 1.92 µM
TGI [1]: 3.73 µM
GI50 [2]: 1.42 µM
TGI [2]: 3.11 µM
GI50 [3]: 3.33 µM
TGI [3]: 13.3 µM
GI50 [4]: 3.4 µM
TGI [4]: 12.9 µM
GI50 [5]: 3.94 µM
TGI [5]: 21 µM
GI50 [6]: 2.63 µM
TGI [6]: 9.28 µM
GI50 [7]: 1.94 µM
TGI [7]: 5.64 µM
GI50 [8]: 1.81 µM
TGI [8]: 3.64 µM
GI50 [9]: 2.83 µM
TGI [9]: 16 µM
GI50 [10]: 2.61 µM
TGI [10]: 9.22 µM
GI50 [11]: 1.24 µM
TGI [11]: 3.5 µM
GI50 [12]: 1.86 µM
TGI [12]: 4.01 µM
GI50 [13]: 1.55 µM
TGI [13]: 2.95 µM
GI50 [14]: 4.69 µM
TGI [14]: 16.1 µM
GI50 [15]: 1.97 µM
TGI [15]: 3.77 µM
GI50 [16]: 3.02 µM
TGI [16]: 12.8 µM
GI50 [17]: 2 µM
TGI [17]: 4.13 µM
GI50 [18]: 2.3 µM
TGI [18]: 5.8 µM
GI50 [19]: 1.02 µM
TGI [19]: 3.69 µM
GI50 [20]: 1.88 µM
TGI [20]: 3.47 µM
GI50 [21]: 2.35 µM
TGI [21]: 7.56 µM
GI50 [22]: 5.06 µM
TGI [22]: 19.4 µM
GI50 [23]: 1.67 µM
TGI [23]: 3.32 µM
GI50 [24]: 1.71 µM
TGI [24]: 3.37 µM
GI50 [25]: 1.94 µM
TGI [25]: 3.99 µM
GI50 [26]: 1.87 µM
TGI [26]: 3.87 µM
GI50 [27]: 2.02 µM
TGI [27]: 4.77 µM
GI50 [28]: 2.11 µM
TGI [28]: 4.29 µM
GI50 [29]: 5.15 µM
TGI [29]: 18.4 µM
GI50 [30]: 2.77 µM
TGI [30]: 11.6 µM
GI50 [31]: 1.28 µM
TGI [31]: 3.41 µM
GI50 [32]: 3.02 µM
TGI [32]: 11.5 µM
GI50 [33]: 2.3 µM
TGI [33]: 9.5 µM
GI50 [34]: 1.31 µM
TGI [34]: 3.19 µM
GI50 [35]: 1.69 µM
TGI [35]: 3.38 µM
GI50 [36]: 1.81 µM
TGI [36]: 4.4 µM
GI50 [37]: 1.93 µM
TGI [37]: 4.15 µM
GI50 [38]: 2.17 µM
TGI [38]: 5.09 µM
GI50 [39]: 1.38 µM
TGI [39]: 2.87 µM
GI50 [40]: 1.84 µM
TGI [40]: 4.06 µM
GI50 [41]: 1.9 µM
TGI [41]: 3.74 µM
GI50 [42]: 1.89 µM
TGI [42]: 3.63 µM
GI50 [43]: 2 µM
TGI [43]: 6.19 µM
GI50 [44]: 2.09 µM
TGI [44]: 4.8 µM
GI50 [45]: 1.7 µM
TGI [45]: 3.51 µM
GI50 [46]: 1.69 µM
TGI [46]: 3.36 µM
GI50 [47]: 1.92 µM
TGI [47]: 3.95 µM
GI50 [48]: 1.76 µM
TGI [48]: 3.29 µM
GI50 [49]: 3.24 µM
TGI [49]: 14.2 µM
GI50 [50]: 3.26 µM
TGI [50]: 10.8 µM
GI50 [51]: 1.69 µM
TGI [51]: 4.56 µM
GI50 [52]: 1.77 µM
TGI [52]: 3.36 µM
GI50 [53]: 1.92 µM
TGI [53]: 3.85 µM
GI50 [54]: 2.22 µM
TGI [54]: 6.03 µM
GI50 [55]: 1.77 µM
TGI [55]: 3.27 µM
